{"source": "patent US20040097587A1", "about": "“Compositions and methods of treatment of ulcerating diseases, burns, and related conditions” (priority 2003, published 2004)", "test_system": "venous ulcer", "test": "Case of a person with venous ulcer and related conditions treated with oral isotretinoin", "assay_type": "in vivo, human", "settings": "approximately 80 milligrams per day for two months", "description": "Preferred unit dosage formulations are those containing a daily dose or unit, daily sub-dose, or an appropriate fraction thereof, of the administered ingredient. […] Acad. of Dermatol, 45, 462-465, which is herein incorporated by reference.", "data": [{"smiles": "CC1=C(/C=C/C(C)=C/C=C/C(C)=C\\C(=O)O)C(C)(C)CCC1", "note": "[isotretinoin, 13-cis-retinoic acid]", "values": [{"measurement": "overall clinical outcome of venous ulcer and related conditions", "setting": "person having venous ulcer and related conditions for five months", "result": "significant improvement"}, {"measurement": "lesions", "setting": "person", "result": "improved"}, {"measurement": "venous ulcer healing", "setting": "person", "result": "healed"}, {"measurement": "vessel prominence", "setting": "person", "result": "significantly decreased"}]}]}
